Experiments:
Format in all cases: biochemical
UGT 2B17 = molecular target: T1, UGT 2B17 (Homo sapiens, UniProt O75795); assay: UGT activity: utilization of substrate by recombinant UGT 2B17 Supersomes; settings: 2 hour incubation at 37° C., plus vs minus UDPGA
T1 construct: purchased BD Gentest; host or cells: insect cells (microsomes)
T1 sequence (O75795 24-530): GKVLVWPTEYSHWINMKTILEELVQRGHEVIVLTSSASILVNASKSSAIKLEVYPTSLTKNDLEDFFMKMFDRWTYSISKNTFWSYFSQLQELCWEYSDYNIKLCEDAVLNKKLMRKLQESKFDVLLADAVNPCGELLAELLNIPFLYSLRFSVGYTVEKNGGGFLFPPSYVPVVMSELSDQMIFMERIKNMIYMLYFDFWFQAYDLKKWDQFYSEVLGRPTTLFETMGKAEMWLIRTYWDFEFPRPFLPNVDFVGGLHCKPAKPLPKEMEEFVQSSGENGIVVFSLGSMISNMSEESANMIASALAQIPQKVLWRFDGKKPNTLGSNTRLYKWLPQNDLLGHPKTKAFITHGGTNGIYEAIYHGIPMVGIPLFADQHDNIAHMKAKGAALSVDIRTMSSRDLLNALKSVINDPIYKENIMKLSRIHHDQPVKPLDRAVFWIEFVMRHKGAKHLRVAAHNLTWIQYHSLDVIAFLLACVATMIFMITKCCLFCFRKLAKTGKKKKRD
Method: (§1) The invention includes a method of determining activity of the uridine 5′-diphospho-glucuronosyltransferase (UDP-glucuronosyltransferase, or UGT) family enzymes in vitro. Briefly, UGT enzymes from overexpressed insect microsomes (Supersomes™, BD Gentest™) or animal tissue microsomes (Xenotech, BD Gentest™) were incubated with a cyanobenzothiazole substrate of the invention and the cofactor UDP-glucuronic acid (UDPGA) at 37° C. in buffer at physiological pH containing MgCl2 and alamethicin (typically, 50 mM TES, pH 7.5, 8 mM MgCl2, 4 mM UDPGA (Sigma) and 25 μg/mL alamethicin (Sigma)). Following the UGT enzyme reaction, an equal volume of P450-Glo Luciferin Detection Reagent (Promega) containing 15-30 mM D-cysteine-HCl.H2O (Sigma) was added and the plate was mixed and incubated at room temperature, typically for 20-30 minutes. […]
(§2) During this incubation, the cysteine reacts with the cyanobenzathiozole substrate to yield a D-luciferin derivative. […] Therefore, activity of the UGT enzyme can be measured by analyzing the difference (lower or no output) in relative light units (RLU) of a sample in which glucuronidation occurs compared to a sample that was run under the same conditions with no added UDPGA cofactor. […]
(§3) Reactions were assembled in a white 96-well plate. […] After the incubation was completed, the plate was read on a Veritas™ luminometer (Turner BioSystems, Inc.; Sunnyvale, Calif.). […]

UGT 1A1 = molecular target: T2, UGT 1A1 (Homo sapiens, UniProt P22309); assay: UGT activity: utilization of substrate by recombinant UGT 1A1 Supersomes; settings: 2 hour incubation at 37° C., plus vs minus UDPGA, background corrected
T2 construct: purchased BD Gentest; host or cells: insect cells (microsomes)
T2 sequence (P22309 26-533): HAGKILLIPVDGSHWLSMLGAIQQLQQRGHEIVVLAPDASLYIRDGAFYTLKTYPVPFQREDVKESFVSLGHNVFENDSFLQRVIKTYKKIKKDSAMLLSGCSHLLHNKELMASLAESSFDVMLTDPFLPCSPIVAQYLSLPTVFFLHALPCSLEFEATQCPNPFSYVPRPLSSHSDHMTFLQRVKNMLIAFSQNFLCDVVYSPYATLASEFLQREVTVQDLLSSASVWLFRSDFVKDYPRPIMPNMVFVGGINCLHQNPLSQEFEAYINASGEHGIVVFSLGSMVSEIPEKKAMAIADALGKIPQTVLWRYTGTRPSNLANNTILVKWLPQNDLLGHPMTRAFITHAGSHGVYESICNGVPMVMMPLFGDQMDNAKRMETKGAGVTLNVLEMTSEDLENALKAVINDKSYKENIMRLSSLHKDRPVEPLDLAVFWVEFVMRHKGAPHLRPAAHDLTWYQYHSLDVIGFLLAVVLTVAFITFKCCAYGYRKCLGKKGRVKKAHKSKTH
Method: as §1, §2, §3

UGT 2B15 = molecular target: T3, UGT 2B15 (Homo sapiens, UniProt P54855); assay: UGT activity: utilization of substrate by recombinant UGT 2B15 Supersomes; settings: 2 hour incubation at 37° C., plus vs minus UDPGA
T3 construct: purchased BD Gentest; host or cells: insect cells (microsomes)
T3 sequence (P54855 24-530): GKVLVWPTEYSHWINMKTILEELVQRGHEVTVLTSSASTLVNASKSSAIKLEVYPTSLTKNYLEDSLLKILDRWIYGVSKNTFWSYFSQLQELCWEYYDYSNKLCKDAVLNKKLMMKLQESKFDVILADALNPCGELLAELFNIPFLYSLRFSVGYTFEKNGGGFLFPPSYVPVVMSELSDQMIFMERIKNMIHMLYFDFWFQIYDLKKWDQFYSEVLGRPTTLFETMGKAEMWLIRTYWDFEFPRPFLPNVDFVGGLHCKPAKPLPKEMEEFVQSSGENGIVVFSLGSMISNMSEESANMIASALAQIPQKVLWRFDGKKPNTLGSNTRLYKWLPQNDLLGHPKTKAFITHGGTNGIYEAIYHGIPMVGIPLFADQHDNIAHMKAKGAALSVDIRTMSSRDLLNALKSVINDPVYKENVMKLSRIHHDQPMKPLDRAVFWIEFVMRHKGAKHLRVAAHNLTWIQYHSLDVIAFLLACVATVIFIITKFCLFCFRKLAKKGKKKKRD
Method: as §1, §2, §3

Row | Structure (SMILES) | utilization by UGT 2B17 (in words) (UGT 2B17) | % utilization by UGT 1A1 (UGT 1A1) | utilization by UGT 2B15 (in words) (UGT 2B15)
1 | Cc1cc(O)cc2sc(C#N)nc12 [compound 3138] | detectable levels of utilization above background | over 50% | detectable levels of utilization above background
2 | Cc1cc(O)cc2sc(C3=NC(C(=O)O)CS3)nc12 (stereo not drawn) [compound 3478] | only UGT 1A6 was able to utilize compound 3478 to any appreciable extent | ≤ 15% | only UGT 1A6 was able to utilize compound 3478 to any appreciable extent
